From patent publication EP1935887A1, “Heterocyclic substituted carbonyl derivatives and their use as dopamine D3 receptor ligands” (Aventis Pharmaceuticals Inc., priority 2001, dated 2002)

Molecular target: T1, Cloned Human Dopamine D3 Receptors (Homo sapiens, UniProt P35462)
T1 construct: expressed in transfected cells; membrane homogenate
Experiment: [N-Methyl-3H]Spiroperidol binding to cloned human dopamine D3 receptors
Settings: Table 2; unit inferred; read-out: d3Ki
In short: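 [N-methyl-3H]spiroperidol binding is run in Tris buffer, pH 7.7. Receptor source is membranes of a stably transfected, high-expressing CHO clone carrying the human D3 gene, kept at -80°C in 10% DMSO.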

T1 sequence (P35462 whole entry): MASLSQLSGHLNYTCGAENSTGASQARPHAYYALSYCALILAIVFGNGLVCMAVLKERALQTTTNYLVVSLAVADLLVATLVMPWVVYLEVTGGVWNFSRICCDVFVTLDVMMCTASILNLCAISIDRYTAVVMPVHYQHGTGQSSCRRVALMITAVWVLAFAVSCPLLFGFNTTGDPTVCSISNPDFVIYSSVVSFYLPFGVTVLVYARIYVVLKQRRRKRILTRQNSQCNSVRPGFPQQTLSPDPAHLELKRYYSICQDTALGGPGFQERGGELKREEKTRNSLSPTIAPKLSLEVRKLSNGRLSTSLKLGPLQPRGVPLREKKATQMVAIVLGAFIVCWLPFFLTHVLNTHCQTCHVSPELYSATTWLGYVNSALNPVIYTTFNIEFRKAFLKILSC

| Compound | Ki [nM] |
| --- | --- |
| O=C(CCCN1CCCN(c2csc3cc(F)ccc23)CC1)NC1CCCC1 [compound 826840] | 11 |
| CC1CCCC(NC(=O)[C@@H]2C[C@H]2CN2CCN(c3csc4cc(C(F)(F)F)ccc34)CC2)C1 (stereo partly shown) [compound 826884] | 15.2 |
| CN(C(=O)[C@@H]1C[C@H]1CN1CCN(c2csc3cc(C(F)(F)F)ccc23)CC1)C1CCCCC1 [compound 826885] | 20.3 |
| O=C([C@@H]1C[C@H]1CN1CCN(c2csc3cc(C(F)(F)F)ccc23)CC1)N(c1ccccc1)C1CCCCC1 [compound 826886] | 136 |
| C[C@H]1CC[C@H](NC(=O)CCCN2CCN(c3csc4cc(C(F)(F)F)ccc34)CC2Cc2ccccc2)CC1 (stereo partly shown) [compound 827055] | 792 |

Same assay, conditions: Table 2 part the 10th table; read-out: d3Ki

| Compound | Ki [nM] |
| --- | --- |
| CC1CC(C)CN(C(=O)CCCN2CCCN(c3csc4cc(F)ccc34)CC2)C1 (stereo not shown) [compound 826838] | 14.6 |
| O=C(CCCN1CCCN(c2csc3cc(F)ccc23)CC1)N1CCCC1 [compound 826839] | 9.37 |
| CC1CCCN1C(=O)CCCN1CCCN(c2csc3cc(F)ccc23)CC1 (stereo not shown) [compound 826842] | 3.66 |
| CN(C)C1CCN(C(=O)CCCN2CCCN(c3csc4cc(F)ccc34)CC2)C1 (stereo not shown) [compound 826843] | 126 |
| CN(C)C1CCN(C(=O)CCCN2CCN(c3csc4cc(F)ccc34)CC2)C1 (stereo not shown) [compound 826863] | 26.6 |
| CCOC(=O)C1CCN(C(=O)[C@@H]2C[C@H]2CN2CCCN(c3csc4cc(F)ccc34)CC2)CC1 [compound 826871] | 10.7 |
| CC1CCCCN1C(=O)[C@@H]1C[C@H]1CN1CCCN(c2csc3cc(F)ccc23)CC1 (stereo partly shown) [compound 826873] | 1.31 |
| CC1CCN(C(=O)[C@@H]2C[C@H]2CN2CCCN(c3csc4cc(F)ccc34)CC2)CC1 [compound 826874] | 1.72 |
| CC1CCCN(C(=O)[C@@H]2C[C@H]2CN2CCCN(c3csc4cc(F)ccc34)CC2)C1 (stereo partly shown) [compound 826875] | 2.79 |
| O=C([C@@H]1C[C@H]1CN1CCCN(c2csc3cc(F)ccc23)CC1)N1CCC(N2CCCC2)CC1 [compound 826876] | 2.72 |
| CC1(C)CCCN(C(=O)[C@@H]2C[C@H]2CN2CCCN(c3csc4cc(F)ccc34)CC2)C1 [compound 826877] | 4.72 |
| CC1CC(C)CN(C(=O)[C@@H]2C[C@H]2CN2CCCN(c3csc4cc(F)ccc34)CC2)C1 (stereo partly shown) [compound 826878] | 7.95 |
| O=C([C@@H]1C[C@H]1CN1CCCN(c2csc3cc(F)ccc23)CC1)N1CCCC1 [compound 826879] | 1.59 |
| CC1CCCN1C(=O)[C@@H]1C[C@H]1CN1CCCN(c2csc3cc(F)ccc23)CC1 (stereo partly shown) [compound 826882] | 2.93 |
| CN(C)C1CCN(C(=O)[C@@H]2C[C@H]2CN2CCCN(c3csc4cc(F)ccc34)CC2)C1 (stereo partly shown) [compound 826883] | 13.4 |
| CC1(C)CC2CC(C)(CN2C(=O)[C@@H]2C[C@H]2CN2CCN(c3csc4cc(C(F)(F)F)ccc34)CC2)C1 (stereo partly shown) [compound 826896] | 89.5 |
| CCOC(=O)C1CCN(C(=O)[C@@H]2C[C@H]2CN2CCN(c3csc4cc(C(F)(F)F)ccc34)CC2)CC1 [compound 826899] | 45.5 |
| O=C([C@@H]1C[C@H]1CN1CCN(c2csc3cc(C(F)(F)F)ccc23)CC1)N1CCC(O)(c2ccc(Cl)cc2)CC1 [compound 826900] | 181 |
| O=C([C@@H]1C[C@H]1CN1CCN(c2csc3cc(C(F)(F)F)ccc23)CC1)N1CCCC(O)C1 (stereo partly shown) [compound 826902] | 13.1 |
| O=C([C@@H]1C[C@H]1CN1CCN(c2csc3cc(C(F)(F)F)ccc23)CC1)N1CCC(n2c(=O)[nH]c3ccccc32)CC1 [compound 826903] | 7.47 |
| NC(=O)C1CCCN(C(=O)[C@@H]2C[C@H]2CN2CCN(c3csc4cc(C(F)(F)F)ccc34)CC2)C1 (stereo partly shown) [compound 826904] | 39.4 |
| CC1CCCCN1C(=O)[C@@H]1C[C@H]1CN1CCN(c2csc3cc(C(F)(F)F)ccc23)CC1 (stereo partly shown) [compound 826905] | 14.5 |

| Compound | Ki [nM] |
| --- | --- |
| CC1CCN(C(=O)[C@@H]2C[C@H]2CN2CCN(c3csc4cc(C(F)(F)F)ccc34)CC2)CC1 [compound 826906] | 39.5 |
| CC1CCCN(C(=O)[C@@H]2C[C@H]2CN2CCN(c3csc4cc(C(F)(F)F)ccc34)CC2)C1 (stereo partly shown) [compound 826907] | 18.8 |
| CCN(CC)C(=O)C1CCCN(C(=O)[C@@H]2C[C@H]2CN2CCN(c3csc4cc(C(F)(F)F)ccc34)CC2)C1 (stereo partly shown) [compound 826908] | 7.06 |
| CCOC(=O)C1CCCN(C(=O)[C@@H]2C[C@H]2CN2CCN(c3csc4cc(C(F)(F)F)ccc34)CC2)C1 (stereo partly shown) [compound 826909] | 28.9 |
| O=C([C@@H]1C[C@H]1CN1CCN(c2csc3cc(C(F)(F)F)ccc23)CC1)N1CCC(N2CCCCC2)CC1 [compound 826910] | 17.5 |
| O=C([C@@H]1C[C@H]1CN1CCN(c2csc3cc(C(F)(F)F)ccc23)CC1)N1CCC(O)(c2ccccc2)CC1 [compound 826911] | 93 |
| CC1(C)CCCN(C(=O)[C@@H]2C[C@H]2CN2CCN(c3csc4cc(C(F)(F)F)ccc34)CC2)C1 [compound 826912] | 58.5 |
| CC1CC(C)CN(C(=O)[C@@H]2C[C@H]2CN2CCN(c3csc4cc(C(F)(F)F)ccc34)CC2)C1 (stereo partly shown) [compound 826913] | 86.1 |
| O=C([C@@H]1C[C@H]1CN1CCN(c2csc3cc(C(F)(F)F)ccc23)CC1)N1CCC(O)C1 (stereo partly shown) [compound 826914] | 101 |
| O=C([C@@H]1C[C@H]1CN1CCN(c2csc3cc(C(F)(F)F)ccc23)CC1)N1CCC[C@H]1CNc1ccccc1 [compound 826916] | 157 |
| COC[C@@H]1CCCN1C(=O)[C@@H]1C[C@H]1CN1CCN(c2csc3cc(C(F)(F)F)ccc23)CC1 [compound 826917] | 196 |
| CC1CCCN1C(=O)[C@@H]1C[C@H]1CN1CCN(c2csc3cc(C(F)(F)F)ccc23)CC1 (stereo partly shown) [compound 826918] | 30.3 |
| Cc1cccc(C)c1NC[C@@H]1CCCN1C(=O)[C@@H]1C[C@H]1CN1CCN(c2csc3cc(C(F)(F)F)ccc23)CC1 [compound 826919] | 329 |
| O=C([C@@H]1C[C@H]1CN1CCN(c2csc3cc(C(F)(F)F)ccc23)CC1)N1CCC[C@H]1CO [compound 826920] | 67.6 |
| CC(=O)N(C)C1CCN(C(=O)[C@@H]2C[C@H]2CN2CCN(c3csc4cc(C(F)(F)F)ccc34)CC2)C1 (stereo partly shown) [compound 826921] | 183 |
| CC(=O)N[C@@H]1CCN(C(=O)[C@@H]2C[C@H]2CN2CCN(c3csc4cc(C(F)(F)F)ccc34)CC2)C1 [compound 826922] | 183 |
| COC[C@H]1CCCN1C(=O)[C@@H]1C[C@H]1CN1CCN(c2csc3cc(C(F)(F)F)ccc23)CC1 [compound 826923] | 141 |
| CN(C)[C@H]1CCN(C(=O)[C@@H]2C[C@H]2CN2CCN(c3csc4cc(C(F)(F)F)ccc34)CC2)C1 [compound 826926] | 86.5 |
| CC1CCC(C)N1C(=O)[C@@H]1C[C@H]1CN1CCN(c2csc3cc(C(F)(F)F)ccc23)CC1 (stereo partly shown) [compound 826928] | 11.2 |
| O=C(CCCN1CCN(c2csc3cc(C(F)(F)F)ccc23)CC1Cc1ccccc1)N1CCC(O)CC1 (stereo not shown) [compound 827063] | 373 |
| CC1CCN(C(=O)CCCN2CCN(c3csc4cc(C(F)(F)F)ccc34)CC2Cc2ccccc2)CC1 (stereo not shown) [compound 827065] | 168 |

Same assay, conditions: d3Ki, Table 2 part the 10th table

| Compound | Ki [nM] |
| --- | --- |
| O=C1CCN(C(=O)[C@@H]2C[C@H]2CN2CCN(c3csc4cc(C(F)(F)F)ccc34)CC2)CC1 [compound 826901] | 42.4 |

Same assay, conditions: read-out: d3Ki

| Compound | Ki [nM] |
| --- | --- |
| C[C@H]1CC[C@H](NC(=O)[C@@H]2C[C@H]2CN2CCCN(c3csc4cc(F)ccc34)CC2)CC1 [compound 826864] | 2.16 |
| CCOC(=O)[C@H]1CC[C@H](NC(=O)[C@@H]2C[C@H]2CN2CCCN(c3csc4cc(F)ccc34)CC2)CC1 [compound 826865] | 3.68 |
| CC[C@H]1CC[C@H](NC(=O)[C@@H]2C[C@H]2CN2CCCN(c3csc4cc(F)ccc34)CC2)CC1 [compound 826866] | 1.24 |
| CC1CCCC(NC(=O)[C@@H]2C[C@H]2CN2CCCN(c3csc4cc(F)ccc34)CC2)C1 (stereo partly shown) [compound 826867] | 1.89 |
| CN(C(=O)[C@@H]1C[C@H]1CN1CCCN(c2csc3cc(F)ccc23)CC1)C1CCCCC1 [compound 826868] | 3.49 |
| CCN(C(=O)[C@@H]1C[C@H]1CN1CCCN(c2csc3cc(F)ccc23)CC1)C1CCCCC1 [compound 826869] | 6.75 |
| O=C([C@@H]1C[C@H]1CN1CCCN(c2csc3cc(F)ccc23)CC1)N(CCO)C1CCCCC1 [compound 826870] | 7.4 |
| O=C(NC1CCCC1)[C@@H]1C[C@H]1CN1CCCN(c2csc3cc(F)ccc23)CC1 [compound 826880] | 2.86 |
| O=C(NC1CCCCC1)[C@@H]1C[C@H]1CN1CCCN(c2csc3cc(F)ccc23)CC1 [compound 826881] | 2.38 |
| O=C(NNC1CCCCC1)[C@@H]1C[C@H]1CN1CCN(c2csc3cc(C(F)(F)F)ccc23)CC1 [compound 826887] | 83.8 |
| CC1(C)C2CCC1(C)C(NC(=O)[C@@H]1C[C@H]1CN1CCN(c3csc4cc(C(F)(F)F)ccc34)CC1)C2 (stereo partly shown) [compound 826890] | 38 |
| CC(C)[C@@H]1CC[C@@H](C)C[C@H]1NC(=O)[C@@H]1C[C@H]1CN1CCN(c2csc3cc(C(F)(F)F)ccc23)CC1 [compound 826891] | 263 |
| O=C(N[C@H]1CCCC[C@@H]1O)[C@@H]1C[C@H]1CN1CCN(c2csc3cc(C(F)(F)F)ccc23)CC1 [compound 826892] | 25.9 |
| CC1CC(NC(=O)[C@@H]2C[C@H]2CN2CCN(c3csc4cc(C(F)(F)F)ccc34)CC2)CC(C)(C)C1 (stereo partly shown) [compound 826893] | 20.4 |
| CCN(C(=O)[C@@H]1C[C@H]1CN1CCN(c2csc3cc(C(F)(F)F)ccc23)CC1)C1CCCCC1 [compound 826894] | 35 |
| O=C([C@@H]1C[C@H]1CN1CCN(c2csc3cc(C(F)(F)F)ccc23)CC1)N(CCO)C1CCCCC1 [compound 826895] | 48.8 |
| CCOC(=O)[C@H]1CCCC[C@H]1NC(=O)[C@@H]1C[C@H]1CN1CCN(c2csc3cc(C(F)(F)F)ccc23)CC1 [compound 826897] | 128 |
| CCOC(=O)[C@H]1CCCC[C@@H]1NC(=O)[C@@H]1C[C@H]1CN1CCN(c2csc3cc(C(F)(F)F)ccc23)CC1 [compound 826898] | 50.5 |
